Measurements reported in PubChem BioAssay AID248 (DTP/NCI, 2004).
Toxic doses and inconclusive results are not listed.

Tested on: L1210 leukemia ip in BDF1 mice, survival T/C
Experiment: NCI In Vivo Anticancer Drug Screen. Data for tumor model L1210 Leukemia (intraperitoneal) in B6D2F1 (BDF1) mice
Conditions: endpoint: mean survival time, higher = longer survival
Outline: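 Mice bearing the transplanted tumor received compound or vehicle. Survival of the treated group was divided by that of the vehicle-treated control group to give the ratio.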

[1] = dose: 100.0 mg/kg/injection, schedule: Q04DX003 (ip), vehicle: Klucel (hydroxypropylcellulose) (HPC)
[2] = dose: 200.0 mg/kg/injection, schedule: Q04DX003 (ip), vehicle: Klucel (hydroxypropylcellulose) (HPC)
[3] = dose: 400.0 mg/kg/injection, schedule: Q04DX003 (ip), vehicle: Klucel (hydroxypropylcellulose) (HPC)

For `C[P+]1(c2ccccc2)C2C=CC=CC1C=C2` (configuration not stated), the T/C (dose: 5.0 mg/kg/injection, schedule: Q01DX001 (ip), vehicle: carboxymethylcellulose (CMC)) was 100 % of control, the T/C (dose: 10.0 mg/kg/injection, schedule: Q01DX001 (ip), vehicle: carboxymethylcellulose (CMC)) was 92 % of control and the T/C (dose: 20.0 mg/kg/injection, schedule: Q01DX001 (ip), vehicle: carboxymethylcellulose (CMC)) was 97 % of control.

With `CC(=O)NC1C(CO)OC(n2cnc3c(N)nc(Cl)nc32)C1O` (configuration not stated) the T/C (dose: 100.0 mg/kg/injection, schedule: Q01DX001 (ip), vehicle: Klucel (hydroxypropylcellulose) (HPC)) was 94 % of control, the T/C (dose: 100.0 mg/kg/injection, schedule: Q01DX001 (ip), vehicle: saline with Tween-80) was 105 % of control and the T/C (dose: 200.0 mg/kg/injection, schedule: Q01DX001 (ip), vehicle: Klucel (hydroxypropylcellulose) (HPC)) was 96 % of control. The T/C (dose: 200.0 mg/kg/injection, schedule: Q01DX001 (ip), vehicle: saline with Tween-80) was 107 % of control, the T/C (dose: 400.0 mg/kg/injection, schedule: Q01DX001 (ip), vehicle: Klucel (hydroxypropylcellulose) (HPC)) was 91 % of control and the T/C (dose: 400.0 mg/kg/injection, schedule: Q01DX001 (ip), vehicle: saline with Tween-80) was 100 % of control.

In the case of `CCCCCCCCCCCCCCCCC(=O)OCC`, the T/C (dose: 75.0 mg/kg/injection, schedule: Q01DX001 (ip), vehicle: carboxymethylcellulose (CMC)) is reported as 91 % of control.

In the case of `Cc1ccc(C2CCCCC2OS(=O)(=O)c2ccc(C)cc2)cc1` (configuration not stated), the T/C (dose: 100.0 mg/kg/injection, schedule: Q01DX001 (ip), vehicle: steriod suspending solution) is reported as 102 % of control, the T/C (dose: 200.0 mg/kg/injection, schedule: Q01DX001 (ip), vehicle: steriod suspending solution) is reported as 95 % of control and the T/C (dose: 400.0 mg/kg/injection, schedule: Q01DX001 (ip), vehicle: steriod suspending solution) is reported as 109 % of control.

For `CC(=O)OCC1OC(n2cc(C(F)(F)F)c(=O)[nH]c2=O)CC1OC(C)=O` (configuration not stated), the T/C (dose: 20.0 mg/kg/injection, schedule: Q01DX009 (oral), vehicle: saline) was 116 % of control, the T/C (dose: 20.0 mg/kg/injection, schedule: Q01DX011 (ip), vehicle: saline) was 116 % of control and the T/C (dose: 40.0 mg/kg/injection, schedule: Q01DX009 (oral), vehicle: saline) was 116 % of control. For the same molecule, the T/C (dose: 40.0 mg/kg/injection, schedule: Q01DX011 (ip), vehicle: saline) was 118 % of control, the T/C (dose: 45.0 mg/kg/injection, schedule: Q01DX Z (oral), vehicle: saline) was 105 % of control and the T/C (dose: 65.0 mg/kg/injection, schedule: Q01DX Z (oral), vehicle: saline) was 87 % of control. For the same molecule, the T/C (dose: 80.0 mg/kg/injection, schedule: Q01DX009 (oral), vehicle: saline) was 118 % of control, the T/C (dose: 80.0 mg/kg/injection, schedule: Q01DX011 (ip), vehicle: saline) was 122 % of control and the T/C (dose: 100.0 mg/kg/injection, schedule: Q01DX Z (oral), vehicle: saline) was 109 % of control. The T/C (dose: 150.0 mg/kg/injection, schedule: Q01DX011 (oral), vehicle: saline) was 168 % of control, the T/C (dose: 160.0 mg/kg/injection, schedule: Q01DX009 (oral), vehicle: saline) was 155 % of control and the T/C (dose: 160.0 mg/kg/injection, schedule: Q01DX011 (ip), vehicle: saline) was 159 % of control. For the same molecule, the T/C (dose: 300.0 mg/kg/injection, schedule: Q01DX011 (oral), vehicle: saline) was 153 % of control and the T/C (dose: 480.0 mg/kg/injection, schedule: Q01DX Z (ip), vehicle: saline) was 115 % of control.

With `CN(C)C(=S)SN(C)C(=O)Nc1ccccc1` the T/C [1] was 105 % of control, the T/C [2] was 109 % of control and the T/C [3] was 107 % of control.

In the case of `O=C(Nc1ccc2c(c1)C(=O)c1ccccc1C2=O)Nc1cc(C(F)(F)F)ccc1Cl`, the T/C (dose: 100.0 mg/kg/injection, schedule: Q01DX009 (ip), vehicle: Klucel (hydroxypropylcellulose) (HPC)) is reported as 103 % of control, the T/C (dose: 200.0 mg/kg/injection, schedule: Q01DX009 (ip), vehicle: Klucel (hydroxypropylcellulose) (HPC)) is reported as 97 % of control and the T/C (dose: 400.0 mg/kg/injection, schedule: Q01DX009 (ip), vehicle: Klucel (hydroxypropylcellulose) (HPC)) is reported as 88 % of control.

In the case of `CC1CN1P(=O)(N1CC=CCC1)N1CC1C` (configuration not stated), the T/C (dose: 50.0 mg/kg/injection, schedule: Q01DX001 (ip), vehicle: saline) is reported as 109 % of control, the T/C (dose: 100.0 mg/kg/injection, schedule: Q01DX001 (ip), vehicle: saline) is reported as 120 % of control and the T/C (dose: 200.0 mg/kg/injection, schedule: Q01DX001 (ip), vehicle: saline) is reported as 101 % of control. The T/C (dose: 400.0 mg/kg/injection, schedule: Q01DX001 (ip), vehicle: saline) was 91 % of control.

With `CCOC(=O)C(C#N)NC(C)=O` (configuration not stated) the T/C [1] was 102 % of control, the T/C [2] was 102 % of control and the T/C [3] was 111 % of control.

For `c1ccc(-c2csnn2)cc1`, the T/C (dose: 200.0 mg/kg/injection, schedule: Q01DX001 (ip), vehicle: carboxymethylcellulose (CMC)) was 91 % of control and the T/C (dose: 400.0 mg/kg/injection, schedule: Q01DX001 (ip), vehicle: carboxymethylcellulose (CMC)) was 115 % of control.
